Key:
[1] = Plasma concentrations after administration, LC-MS/MS; type: in vivo, BALB/c mice; settings: mouse
Description: Male BALB/c mice (8–10 weeks old) were purchased from Charles River Laboratory and were randomized for compound administration. Chemical compounds were dissolved in 0.1 ml of 0.5% (w/v) carboxymethycellulose (Sigma-Aldrich) plus 0.5% Tween 80 (Fisher Scientific) and administrated by oral gavage at the dosage of 50 mg/kg or 100 mg/kg. Mice were sacrificed and blood samples were collected immediately before (n = 5) and at 2 (n = 5), 4 (n = 5), 6 (n = 5) or 8 (n = 8) h after compound administration. Plasma samples were sent to the Pharmaceutical Development Center at MD Anderson Cancer Center for LC-MS/MS assay to determine compound concentrations.
Supplementary file pone.0181601.s001.tif: S1 Fig The serum concentrations of compound C9. The chemical compound was dissolved in 5% DMSO-0.5% Tween 80. BALB/c mice (8–10 weeks old) were randomized and administrated the vehicle (0.1 ml) or compound C9 dissolved in the vehicle (0.1 ml) by intraperitoneal (I.P.) injection at the dosage of 25, 50 or 100 mg/kg. Mice were sacrificed and blood samples were collected immediately before (0 h, n = 5) and at 2 (n = 5), 4 (n = 5), 6 (n = 5) and 8 (n = 5) h after compound administration. Plasma samples were sent to the Pharmaceutical Development Center at MD Anderson Cancer Center for LC-MS/MS assay to determine compound concentrations. (TIF) Click here for additional data file.

[2] = tested on: A549 lung tumor xenografts; test: Orthotopic lung tumor xenograft model; type: in vivo, nude mice; settings: 100 mg/kg oral gavage daily
Description: Six-week old nude mice were purchased from the National Cancer Institute and maintained in a barred animal facility. Cell injection into the mouse lung was performed as described previously. Mice were treated with vehicle [0.1 ml, 0.5% (w/v) carboxymethycellulose plus 0.5% Tween 80] by oral gavage or the compound dissolved in the vehicle (0.1 ml, 100 mg/kg) for 21 days. The lungs of the mice were then removed, fixed with formaldehyde and embedded in paraffin. Paraffin-embedded lung tissue sections (4 μm) were stained with H&E and evaluated for tumors. The tumor areas in lungs were quantified using the ImageJ software program (NIH).
We used the orthotopic lung tumor model to determine effects of the compound C9a on growth of lung cancer xenografts. A549 cells were injected into the lung of nude mouse as previously reported by us. Mice were randomized and divided into two groups: (a) control mice (n = 5): administration of the vehicle [0.5% (w/v) carboxymethycellulose plus 0.5% Tween 80] by oral gavage daily; (b) treated mice (n = 10): administration of the compound C9a in the vehicle at the dosage of 100 mg/kg by oral gavage daily. […]
Fig 9 The compound C9a inhibited growth of lung tumor xenografts in nude mice. […] Histones were isolated from tumors and analyzed by SDS-PAGE stained with Commassie blue R250 (bottom) or by Western blot with anti-symmetric dimethyl arginine antibody (SYM10) (top).

[3] = tested on: histone H2A arginine methylation in lung tumor xenografts; test: Western blot of histone symmetric dimethylarginine in lung tumors; type: in vivo, nude mice; settings: 100 mg/kg oral, 21 days, SYM10 antibody
Description: Histones were purified as reported previously. Briefly, cells (1–5 x 10^6) or lung tumors (10–100 mg) were lysated using a glass dounce in 1 ml of 1x Passive Lysis Buffer (Promega) and nuclear pellets were collected by centrifugation at 3,000 rpm for 5 min at 4 °C. The supernatant was discard and the pellets were washed with 1 ml of 1x Passive Lysis Buffer. Nuclear pellets were resuspended in 0.4 ml of the buffer (10 mM Trs-HCl, pH7.9, 0.2 mM EDTA, 1 mM DTT, 20% glycerol, 0.42 M KCl) and incubate for 30 min on ice, and centrifuged at 12,000 rpm for 10 min at 4 °C. The supernatant (histones extract) was transferred to a new tube and histones were precipitated by 20% trichloroacetic acid.
Protein extracts or histones (20 μg) were subjected to 10% or 15% sodium dodecyl sulfate-polyacrylamide gel electrophoresis, respectively then transferred to Immobilon-P membranes (Millipore). […] Immunoreactive proteins were detected using an enhanced chemiluminescence detection system (GE Healthcare) per the manufacturer’s instructions. Protein concentrations were determined using the Bradford protein assay reagent (Bio-Rad).
Fig 9 The compound C9a inhibited growth of lung tumor xenografts in nude mice. […] Histones were isolated from tumors and analyzed by SDS-PAGE stained with Commassie blue R250 (bottom) or by Western blot with anti-symmetric dimethyl arginine antibody (SYM10) (top). […]

Row | SMILES | plasma concentration reached ([1]; intraperitoneal injection, 100 mg/kg) [µM] | maximal plasma concentration ([1]; oral gavage, 100 mg/kg) [µM] | oral drug availability compared to C9 ([1]; oral gavage) | average tumor size (tumor area mean) in control mice relative to treated mice ([2]; 3 weeks) [fold] | effect on growth of mice (body weight) ([2]; 21 days) | arginine methylation in histone H2A in lung tumors [3]
1 | COc1ccc(Nc2ncnc3c2cnn3Cc2ccc(C)cc2)cc1 [Compound C9] | 38 | 5.8 | – | – | – | –
2 | Nc1cccc(Nc2ncnc3c2cnn3Cc2ccccc2)c1 [Compound C9a] | – | – | improved oral drug availability | 7.2 | retarded growth of mice | significantly inhibited

From article PMC5555576, “Selective small-chemical inhibitors of protein arginine methyltransferase 5 with anti-lung cancer activity” (PLoS ONE, 2017)
